Data taken from patent US20140271922A1, “PIRENZEPINE AS AN AGENT IN CANCER TREATMENT” (PROTEOSYS AG, priority 2009, published 2014).
Entries after “also recorded” stand apart in the source; their conditions may differ.

Test system: Human H460 Large Cell Lung Cancer (NCI-H460 human NSCLC cells)
Experiment: Tumor growth in the H460 lung tumor xenograft model
Format: in vivo, Female NMRI nude mice
Settings: for effect on tumor growth, single agent (in words): PSY 310 alone, 50 mg/kg/d po, 50 mg/kg/day; for potentiation of the cytostatic effects of cisplatin (in words): PSY 310 po co-administered with cisplatin ip
Protocol: PSY 310 was tested with 2 different dosing schedules of cisplatin. • Animals: Female NMRI nude mice (Janvier, Le Genest St Isle, France), age: 6-7 weeks at start of experiment Janvier, Le Genest St Isle, France; age 5-6 weeks). 70 animals were inoculated at the beginning of the experiment. • Cells: Human H460 Large Cell Lung Cancer (ATCC: HTB-177); • 3×10^6 cells from cell culture was inoculated subcutaneously per mouse in a volume of 200 μl on day 0. • Application route: subcutaneously; • 1 tumor/mouse • Tumor volume at • start of therapy: 62.5-100 mm^3 • (formula: a×b^2×0.5; a: length, b width) • Test compounds: Cisplatin, • PSY 310 (Pirenzepine) • Dosing: Cisplatin • 1) high dose: 1×/week, 2 weeks (days 7, 14) • dose: 2.5 mg/kg/day; route: ip • 2) low dose 5×/week, 2 weeks (days 7-11+14-18) • dose: 0.15 mg/kg/day; route: ip • PSY 310 • 1×/day for 12 days (days 7-19) • dose: 50 and 20 mg/kg/day; route: po • Vehicle/solvent: Cisplatin:water for injection • PSY 310: PBS, oral gavage • Application volume: 10 ml/kg • Criteria for study termination: Animal weight loss >20% • Tumor >10% body weight or ulceration of tumors • Parameters: […] [table] [table] NCI-H460 human NSCLC cells were implanted in the flanks of immunodeficient mice and growth of the resultant solid tumors was recorded. Mice were assigned to seven treatment groups as indicated above. Tumor dimensions (and animal body weights) were measured on days 10, 14, 17, and 21 after inoculation, and tumor volumes were calculated. As tumor growth was close to exponential evaluations were performed on the common logarithms of tumor volumes in order to render the data suitable for evaluation by a linear model. […] Alternatively, the ratios log(volume)/log(initial volume) were employed, yielding very similar results. Tumors with extremely small initial volumes (<20 μl) in which volume measurements are expected to be rather imprecise were omitted from the evaluations. Comparisons were carried out in the following way: • The slopes of log(volume) over time (i.e. the exponent of the approximately exponential volume growth) were determined for each animal. The ratios of the exponents averaged over the respective groups are given as a measure of the magnitude of the growth retarding effect of the current treatment. • Multivariate variance analyses using the day of measurement and Cisplatin/PSY 310 treatment as model effects were performed.

| Structure (SMILES) | exponent ratio (ratio of group-averaged slopes of log(tumor volume) over time) (Cisplatin high (2.5 mg/kg/day ip) versus Cisplatin low (0.15 mg/kg/day ip), ANOVA p = 0.91) | exponent ratio (ratio of group-averaged slopes of log(tumor volume) over time) (Cisplatin high (2.5 mg/kg/day ip, 1x/week, 2 weeks) versus Control, ANOVA p = 0.014) | exponent ratio (ratio of group-averaged slopes of log(tumor volume) over time) (Cisplatin low (0.15 mg/kg/day ip, 5x/week, 2 weeks) versus Control, ANOVA p = 0.077) | effect on tumor growth of cisplatin alone (in words) (cisplatin ip, low and high dose regimens) | exponent ratio (ratio of group-averaged slopes of log(tumor volume) over time) (PSY 310 50 mg/kg/day po alone (1x/day, 12 days) versus Cisplatin high, ANOVA p = 0.016) | exponent ratio (ratio of group-averaged slopes of log(tumor volume) over time) (PSY 310 50 mg/kg/day po alone (1x/day, 12 days) versus Control, ANOVA p = 0.0003) | effect on tumor growth, single agent (in words) | effect on tumor growth, single agent (in words) (listed as Pirenzepine) | potentiation of the cytostatic effects of cisplatin (in words) | potentiation of the cytostatic effects of cisplatin (in words) (listed as Pirenzepine) |
| --- | --- | --- | --- | --- | --- | --- | --- | --- | --- | --- |
| N.N.[Cl][Pt][Cl] [Cisplatin] | 0.96 | 0.81 | 0.85 | moderate effects |  |  |  |  |  |  |
| CN1CCN(CC(=O)N2c3ccccc3C(=O)Nc3cccnc32)CC1 [PSY 310] |  |  |  |  | 0.74 | 0.61 | even more effective than cisplatin-low dose and cisplatin-high dose regimens; also recorded: single agent cytostatic properties; also recorded: major effect | significant anti-cancer activity by itself | potentiating the cytostatic effects of cisplatin | significant potentiating anti-cancer activity |
